Laboratory results published in patent US5739158A, “Nitrogen-containing cyclohetero cycloalkylaminoaryl derivatives for CNS disorders” (The United States of America as represented by the …, priority 1992, dated 1998).
Several values for one entry are separate records, joined by “and”; a condition that tells them apart may be missing. Equal values may be shown once. Entries after “also recorded” stand apart in the source; their conditions may differ. Read-outs that look alike come from different tables or passages of the source.

Legend:
sigma receptors = molecular target: T1, sigma receptors (Cavia porcellus, UniProt Q60492); test: Radioreceptor assay in guinea pig brain homogenate (P2 membranes), [3H]-(+)-3-PPP; type: binding
T1 construct: crude synaptosomal (P2) membrane fraction of guinea pig brain for sigma receptors; tissue Pel-Freeze, Rogers, Ak; host or cells: guinea pig brain minus cerebellum, crude synaptosomal (P2) membranes

NMDA receptor = conditions: C. Carter et al, 1988; cited from earlier work
sigma receptor = molecular target: T2, sigma receptor (Rattus norvegicus, UniProt Q9R0C9); test: Radioreceptor assay in rat brain homogenate, displacement of [3H]-(+)-3-PPP; type: binding; conditions: for Ki: rat brain membranes, 2 nM [3H]-(+)-3-PPP, 1 hr, room temperature, units ± SEM, read-out: Ki apparent
T2 construct: Brains from male Sprague-Dawley rats were homogenized; from tissue; host or cells: rat brain crude membranes (male Sprague-Dawley)
Experimental: Acad. Sci., 83, 8784-8788, 1986] to determine the relative potency of the compounds interacting with the sigma receptor. To determine the effects of the compounds in a sigma receptor assay, crude membrane preparations were prepared as follows. Brains from male Sprague-Dawley rats were homogenized in 10 volumes (wt/vol) of 0.32M sucrose, using a Polytron grinder. The homogenate was centrifuged at 900×G for 10 minutes at 4° C. The supernatant was collected and centrifuged at 22,000×g for 20 minutes at 4° C. The pellet was resuspended in 10 volumes of 50 mM Tris/HCl buffer (pH 7.4) and centrifuged at 22,000×g for 20 minutes at 4° C. The pellet was resuspended in 5 mM Tris/HCl buffer (pH 7.4) to give a final concentration of 250 mg/ml of the crude material. Incubation tubes were prepared in triplicate and contained 0.1 ml of tissue suspension, 2 nM of [^3 H]-(+)-1-propyl-3-(3-hydroxyphenyl)piperidine {[^3 H]-3-(+)-PPP}, and varying concentrations of the displacing ligand (0.1-1000 nM) in a final volume of 0.5 ml. After a 1 hr incubation at room temperature, the contents of the test tubes were filtered through GS filter paper which had been presoaked for at least 2 hours in 0.05% polyethyleneamine. The test tubes were rinsed three times with Tris/HCl buffer. Radioactivity on the filters was determined and […] were calculated from inhibition curves using the method of Cheng and Prusoff [Biochem. Pharmacol., 22, 3099-3108, 1973].

substantia nigra = test: Circling behavior assay, intranigral microinjection; type: in vivo, rat; conditions: for Net Turns (individual rat): individual subjects
Experimental: In order to assess the utility of compounds of the invention in treatment of Parkinsonism, the ability of the compound to stimulate movement following microinjections in the substantia nigra was assessed. Parkinson's disease results from the degeneration of dopamine-secreting neurons in the substantia nigra resulting in a reduced ability to generate movement. […] Such a stimulatory action would predict increased ability to generate voluntary movement in Parkinson's patients showing decreased functionality of this brain area. Current treatments of Parkinson's disease also stimulate this brain area, but show significant side effects that may not be present in compounds of the invention. […] It is expected, therefore, that compounds of the invention would have clinical utility in the treatment of Parkinson's disease and other disorders in which there is a paucity of movement.
Three to seven days before behavioral testing, each animal (245-350 g, N=57) was anesthetized with 50 mg/kg sodium pentobarbital and mounted in a Narishige stereotaxic apparatus. A guide cannula, constructed from 24 gauge thinwall stainless steel tubing, was implanted with its tip 4.0 mm above the left substantia nigra pars reticulata (coordinates: 3.2 mm anterior; 2.2 mm lateral; 4.7 mm ventral), from lambda and the skull surface. Cannulae were secured with stainless steel screws and dental acrylic. Stainless steel stylers kept the cannulae sealed except during drug infusion. All drugs were prepared on the day of testing. Animals were gently restrained and the drugs were administered in a volume of 0.5 ul over 72 seconds through a 31 gauge microneedle that was constructed to extend 4.0 mm beyond the tips of the guide cannulae. […] Animals received a single injection of saline (n=6), 1.5 nmol (n=5), 3.7 nmol (n=6), 9.3 nmol (n=7 or 14.9 nmol (n=5) in 0.5 ul 0.9% NaCl. Following injection, each animal was fitted with a harness which was connected to an optical position transducer interfaced to a compouter that derived the number and direction of half turns for 30 min. Each rat received a single injection of the test drug to minimize tissue damage. Rats were sacrificed by an overdose of sodium pentobarbital and perfused intracardially with 10% formalin. Brains were fixed in a 30% sucrose-formalin solution and coronal sections (40 um) were taken throughout the extent of the injection site. The sections were stained with cresyl violet and examined under a microscope to localize injection sites. Only subjects with histologically confirmed injection sites were used in the data analyses. For the studies of circling behavior, the number of net (contalateral-isolateral) rotations were computed for each rat and subjected to analysis of variance. […] Results showing contralateral circling behavior produced by intranigral microinjections of various doses of Compound #1 are reported in Table IV and illustrated in FIG. 1.
Individual subjects are shown along with the average and standard deviation of the effect.

T2 sequence (Q9R0C9 whole entry): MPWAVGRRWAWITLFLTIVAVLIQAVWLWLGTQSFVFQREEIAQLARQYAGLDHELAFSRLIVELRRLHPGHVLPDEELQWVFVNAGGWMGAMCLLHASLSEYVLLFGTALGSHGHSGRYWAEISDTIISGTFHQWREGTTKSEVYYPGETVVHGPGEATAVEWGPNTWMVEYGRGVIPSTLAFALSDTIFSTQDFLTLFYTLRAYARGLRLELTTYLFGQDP
T1 sequence (Q60492 whole entry): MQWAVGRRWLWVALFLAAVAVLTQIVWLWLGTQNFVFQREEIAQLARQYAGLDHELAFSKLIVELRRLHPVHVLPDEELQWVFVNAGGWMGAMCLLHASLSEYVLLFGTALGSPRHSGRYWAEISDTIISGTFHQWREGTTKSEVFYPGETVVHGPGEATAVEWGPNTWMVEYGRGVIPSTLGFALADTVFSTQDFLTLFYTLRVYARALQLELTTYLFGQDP

In the case of `CN(Cc1ccc(Cl)c(Cl)c1)[C@@H]1CCCC[C@@H]1N1CCCC1` (relative stereo) [compound 17, (±)-cis-N-[2-(3,4-dichlorophenyl)methyl]-N-methyl-2-(1-pyrrolidinyl)cyclohexylamine], the Ki (sigma receptors) is reported as 1.2 ± 0.03 nM.

Work on `CN(CCc1ccccc1)[C@@H]1CCCC[C@@H]1N1CCCC1` (racemic) [compound 9, (±)-cis-N-methyl-N-(2-phenylethyl)-2-(1-pyrrolidinyl)cyclohexylamine] yielded a Ki (sigma receptors) of 113 ± 8 nM.

In the case of `CC(C(O)c1ccc(O)cc1)N1CCC(Cc2ccccc2)CC1` (centres unmarked) [ifenprodil], the “NMDA receptor antagonism (in words)” value (NMDA receptor) is given as “non-competitive NMDA receptor antagonists”.

For `CCCN(CCc1ccc(Cl)c(Cl)c1)[C@@H]1CCCC[C@@H]1N1CCCC1` [compound 4, (1R,2S)-(-)-cis-N-[2-(3,4-dichlorophenyl)-ethyl]-N-(n-propyl)-2-(1-pyrrolidinyl)cyclohexylamine], the Ki (sigma receptors) was 56 ± 9.9 nM.

Molecule `CN(CCc1ccc2c(c1)OCO2)[C@@H]1CCCC[C@@H]1N1CCCC1` [compound 12, 1R,2S-(+)-cis-N-methyl-N-[2-(3,4-methylenedioxyphenyl)ethyl]-2-(1-pyrrolidinyl)cyclohexylamine] has a Ki (sigma receptors) of 31 ± 0.05 nM.

`CCN(CCc1ccc(Cl)c(Cl)c1)[C@H]1CCCC[C@H]1N1CCCC1` [compound 14, 1S,2R-(-)-cis-N-[2-(3,4-dichlorophenyl)ethyl]-N-ethyl-2-(1-pyrrolidinyl)cyclohexylamine] gave a Ki (sigma receptors) of 3.1 ± 0.55 nM.

`CN(CCc1ccc2ccccc2c1)[C@@H]1CCCC[C@@H]1N1CCCC1` (racemic) [compound 10, (±)-cis-N-methyl-N-[2-(β-naphthyl)ethyl]-2-(1-pyrrolidinyl)cyclohexylamine] showed a Ki (sigma receptors; guinea pig brain P2 membranes, 3 nM [3H]-3-PPP, pH 8.0, 120 min, 25° C., units ± SEM, read-out: Ki) of 33 ± 5 nM.

For `CN(CCc1ccc(Cl)c(Cl)c1)[C@@H]1CCCC[C@@H]1N1CCCC1` (racemic) [Compound No. 1, (±)-cis-N-[2-(3,4-dichlorophenyl)ethyl]-N-methyl-2-(1-pyrrolidinyl)cyclohexylamine], the “Binding to sigma receptors (in words)” value (sigma receptor) was “binds to sigma receptors”, the Ki (sigma receptor) was 230 ± 70 nM and the Ki (sigma receptors) was 1.8 ± 0.4 nM. For the same molecule, the “Net Turns, Average” value (substantia nigra; dose 1.49 nmol, Stan Dev 18.94) was 11.00 1/2 contralateral rotations ne, the “Net Turns (individual rat)” value (substantia nigra; dose 1.49 nmol) was 25.00 1/2 contralateral rotations ne and 17.00 1/2 contralateral rotations ne and 5.00 1/2 contralateral rotations ne and 4.00 1/2 contralateral rotations ne and 38.00 1/2 contralateral rotations ne and the “Net Turns, Average” value (substantia nigra; dose 3.72 nmol, Stan Dev = 7.87) was 18.33 1/2 contralateral rotations ne. The “Net Turns (individual rat)” value (substantia nigra; dose 3.72 nmol) was 13.00 1/2 contralateral rotations ne and 23.00 1/2 contralateral rotations ne and 5.00 1/2 contralateral rotations ne and 28.00 1/2 contralateral rotations ne and 25.00 1/2 contralateral rotations ne and 16.00 1/2 contralateral rotations ne, the “Net Turns, Average” value (substantia nigra; dose 9.3 nmol, Stan Dev 21.46) was 38.14 1/2 contralateral rotations ne and the “Net Turns (individual rat)” value (substantia nigra; dose 9.3 nmol) was 28.00 1/2 contralateral rotations ne and 20.00 1/2 contralateral rotations ne and 46.00 1/2 contralateral rotations ne and 87.00 1/2 contralateral rotations ne and 30.00 1/2 contralateral rotations ne and 22.00 1/2 contralateral rotations ne and 34.00 1/2 contralateral rotations ne. The “Net Turns, Average” value (substantia nigra; dose 14.9 nmol, Stan Dev = 27.08) was 31.00 1/2 contralateral rotations ne, the “Net Turns (individual rat)” value (substantia nigra; dose 14.9 nmol) was 6.00 1/2 contralateral rotations ne and 58.00 1/2 contralateral rotations ne and 13.00 1/2 contralateral rotations ne and 61.00 1/2 contralateral rotations ne and 7.00 1/2 contralateral rotations ne and 75.00 1/2 contralateral rotations ne and 24.00 1/2 contralateral rotations ne and 4.00 1/2 contralateral rotations ne and the “Circling behavior compared to saline control” value (substantia nigra; intranigral microinjection 1.5-14.9 nmol, F4,27=3.09, p=0.032) was “significant dose-related increases in circling behavior; also recorded: increasing doses of Compound #1 produce marked effects, which are statistically significant”. For the same molecule, the “Doses producing circling compared with (+)-pentazocine” value (substantia nigra; intranigral, (+)-pentazocine data published previously) was “doses lower than those necessary to produce the effect with (+)-pentazocine”.

Molecule `CN(CCc1ccc2c(c1)OCO2)[C@H]1CCCC[C@H]1N1CCCC1` [compound 11, 1S,2R-(-)-cis-N-methyl-N-[2-(3,4-methylenedioxyphenyl)ethyl]-2-(1-pyrrolidinyl)cyclohexylamine] has a Ki (sigma receptors) of 90 ± 20 nM.

For `CCCN(CCc1ccc(Cl)c(Cl)c1)[C@H]1CCCC[C@H]1N1CCCC1` [compound 16, 1S,2R-(-)-cis-N-[2-(3,4-dichlorophenyl)ethyl]-N-(1-propyl)-2-(1-pyrrolidinyl)cyclohexylamine], the Ki (sigma receptors) was 140 ± 17 nM.

For `CN(CCc1ccc(Cl)c(Cl)c1)[C@H]1CCCC[C@H]1N1CCCC1` [Compound No. 7, 1S,2R-(-)-cis-N-[2-(3,4-dichlorophenyl)ethyl]-N-methyl-2-(1-pyrrolidinyl)cyclohexylamine], the Ki (sigma receptor) was 30 ± 10 nM and the Ki (sigma receptors) was 1.3 ± 0.3 nM.

For “1-(4-chlorophenyl)-2-[1-(4-fluorophenyl)piperidinyl]ethanol”, the “NMDA receptor antagonism (in words)” value (NMDA receptor) is listed as “non-competitive NMDA receptor antagonists”.

Work on `CCN(CCc1ccc(Cl)c(Cl)c1)[C@@H]1CCCC[C@@H]1N1CCCC1` [compound 5, (1R,2S)-(-)-cis-N-ethyl-N-[2-(3,4-dichlorophenyl)ethyl]-2-(1-pyrrolidinyl)cyclohexylamine] yielded a Ki (sigma receptors) of 3.5 ± 1 nM.
